Experimental data from patent US20150031102A1, “METHODS AND COMPOSITIONS FOR ENHANCED PRODUCTION OF BUTANOL BY CLOSTRIDIA” (Butrolix LLC, priority 2012, published 2015).
Several values for one entry are separate records, joined by “and”; a condition that tells them apart may be missing. Equal entries are not always repeated.

Test system: Clostridium acetobutylicum strain ATCC 824
Assay: Sequential batch transfer in 24-well culture plates (butanol, residual glucose, butanol yield and productivity)
Assay type: cell-based
Settings: for Butanol: Experiment 1; for Residual glucose concentration: initial glucose 60 g/L
Method: Each well contained 1.5 mL of growth medium. Peptide was added to each well at the indicated concentration (0, 25, 50, and 100 nM). Every 24 hours fresh medium and peptide treatment were added to a new column of wells then 1.5 μL of the previous day culture was transferred to the new well. Wells were harvested for glucose and butanol analysis after 96 hours of growth. Transfers 1, 4, 7, 10, 13, 16, […].
Briefly, Clostridium spores were germinated in a suitable growth medium for 18-24 hours then […] was transferred to 1.5 mL of fresh medium in each of four wells on a 24-well culture plate. Three of the wells had been treated with 25 nM, 50 nM and 100 nM of peptide, respectively while the fourth well was untreated. Thereafter, every 24 hours […] of each subculture was transferred to 1.5 mL of fresh medium that contained the same peptide treatment or no treatment. Transfers of successive subcultures were done for 24 days, and each subculture was grown for 96 hours before being harvested. Culture supernatants were recovered following centrifugation and were analyzed for butanol and residual glucose concentrations. Determination of optimum peptide treatment levels was based on a graphical comparison of the concentration of butanol in each of the four culture wells for sequential transfers 1, 4, 7, 10, 13, 16, 19, 22 and 24.
Clostridium acetobutylicum strain ATCC 824 was used in all experiments and the growth medium used for sequential batch transfer, time course, and continuous culture experiments contained yeast extract, casamino acids, L-cysteine, L-asparagine, phosphate buffer, trace minerals, and 6% glucose. What are believed to be quorum-sensing peptides that were used in the experiments were chemically synthesized peptides SEQ ID NO: 143 (amino acid sequence: SYPGWSW) and SEQ ID NO: 144 (amino acid sequence: ILILISG). Routine growth of the bacteria as well as the sequential batch and time course experiments were conducted in a Form a Scientific Model 1029 anaerobic gas chamber at 32° C. Continuous cultures were performed at 32° C. using duplicate New Brunswick Scientific BioFlo 3000 apparati with a dilution rate of 0.01 volume per hour, 75 rpm agitation, and nitrogen gas sparging. Optical density of culture samples was measured at 600 nm in a Beckman DU 600 series spectrophotometer and glucose was analyzed using a YSI Model 2700 Select Biochemistry Analyzer with internal glucose calibration. Butanol concentrations were determined by measuring experimental and standard samples using a Varian Saturn 3 Gas Chromatograph/Mass Spectrometer and calculating butanol concentrations using standard curves.
(§1) Sequential batch transfer experiments were carried out in 24-well culture plates that contained 1.5 mL of medium per well. Peptide was added to each well at the indicated concentrations of 0 nM (control), 25 nM, 50 nM, or 100 nM. Every 24 hours, fresh medium and peptide treatments were added to a new column of wells. Then, 1.5 uL of the previous day culture was transferred to the new well. Wells were harvested for glucose and butanol analysis after 96 hours of growth; transfers 1, 4, 7, 10, 13, 16, 19, 22, and 24 were analyzed. Two representative experiments are shown in Tables 30 and 31 and FIGS. 14 and 15.
as §1, with “32” for “30”, “33” for “31”, “16” for “14”, “17.” for “15.”

[1] = 50 nM, transfer 10, first experiment, after 96 hours of culture
[2] = 50 nM, transfer 13, first experiment, after 96 hours of culture
[3] = 50 nM, transfer 16, first experiment, after 96 hours of culture
[4] = 50 nM, transfer 19, first experiment, after 96 hours of culture
[5] = 50 nM, transfer 22, first experiment, after 96 hours of culture
[6] = 50 nM, transfer 24, first experiment, after 96 hours of culture
[7] = 100 nM peptide, transfer 1, after 96 hours of culture, Expt. 2 (repeat)
[8] = 100 nM peptide, transfer 4, after 96 hours of culture, Expt. 2 (repeat)
[9] = 100 nM peptide, transfer 7, after 96 hours of culture, Expt. 2 (repeat)
[10] = 100 nM peptide, transfer 10, after 96 hours of culture, Expt. 2 (repeat)
[11] = 100 nM peptide, transfer 13, after 96 hours of culture, Expt. 2 (repeat)
[12] = 100 nM peptide, transfer 16, after 96 hours of culture, Expt. 2 (repeat)
[13] = 100 nM peptide, transfer 19, after 96 hours of culture, Expt. 2 (repeat)
[14] = 100 nM peptide, transfer 22, after 96 hours of culture, Expt. 2 (repeat)
[15] = 100 nM peptide, transfer 24, after 96 hours of culture, Expt. 2 (repeat)
[16] = 100 nM, transfer 1, first experiment, after 96 hours of culture
[17] = 100 nM, transfer 4, first experiment, after 96 hours of culture
[18] = 100 nM, transfer 7, first experiment, after 96 hours of culture
[19] = 100 nM, transfer 10, first experiment, after 96 hours of culture
[20] = 100 nM, transfer 13, first experiment, after 96 hours of culture
[21] = 100 nM, transfer 16, first experiment, after 96 hours of culture
[22] = 100 nM, transfer 19, first experiment, after 96 hours of culture
[23] = 100 nM, transfer 22, first experiment, after 96 hours of culture
[24] = 100 nM, transfer 24, first experiment, after 96 hours of culture
[25] = BP110517 first experiment, 25 nM, transfers 19, 22 and 24
[26] = BP110517 first experiment, 50 nM, transfer 10

Question: What does the source list for SYPGWSW [peptide SEQ ID NO: 143]?
Answer: Butanol (50 nM, transfer 10, after 96 hours of culture, listed as BP110517): 13.7 g/L and 13.66 g/L; Butanol productivity [1]: 0.14 g butanol/L-h; Butanol yield [1]: 0.23 g butanol/g/glucose; Residual glucose concentration [1]: 0.1 g/L; Butanol (50 nM, transfer 13, after 96 hours of culture): 10.28 g/L; Butanol productivity [2]: 0.11 g butanol/L-h; Butanol yield [2]: 0.17 g butanol/g/glucose; Residual glucose concentration [2]: 0.1 g/L; Butanol (50 nM, transfer 16, after 96 hours of culture): 10.95 g/L; Butanol productivity [3]: 0.11 g butanol/L-h; Butanol yield [3]: 0.18 g butanol/g/glucose; Residual glucose concentration [3]: 0.1 g/L; Butanol (50 nM, transfer 19, after 96 hours of culture): 3.96 g/L; Butanol productivity [4]: 0.04 g butanol/L-h; Butanol yield [4]: 0.07 g butanol/g/glucose; Residual glucose concentration [4]: 47.6 g/L; Butanol (50 nM, transfer 22, after 96 hours of culture): 5.35 g/L; Butanol productivity [5]: 0.06 g butanol/L-h; Butanol yield [5]: 0.09 g butanol/g/glucose; Residual glucose concentration [5]: 45.9 g/L; Butanol (50 nM, transfer 24, after 96 hours of culture): 4.70 g/L; Butanol productivity [6]: 0.05 g butanol/L-h; Butanol yield [6]: 0.08 g butanol/g/glucose; Residual glucose concentration [6]: 50.2 g/L; Butanol concentration [7]: 0.62 g/L; Butanol productivity [7]: 0.01 g butanol/L-h; Butanol yield [7]: 0.01 g butanol/g/glucose; Residual glucose concentration [7]: 55.6 g/L; Butanol concentration [8]: 1.50 g/L; Butanol productivity [8]: 0.02 g butanol/L-h; Butanol yield [8]: 0.03 g butanol/g/glucose; Residual glucose concentration [8]: 49.3 g/L; Butanol concentration [9]: 4.10 g/L; Butanol productivity [9]: 0.04 g butanol/L-h; Butanol yield [9]: 0.07 g butanol/g/glucose; Residual glucose concentration [9]: 0.1 g/L; Butanol concentration [10]: 7.37 g/L; Butanol productivity [10]: 0.08 g butanol/L-h; Butanol yield [10]: 0.13 g butanol/g/glucose; Residual glucose concentration [10]: 0.1 g/L; Butanol concentration [11]: 5.60 g/L; Butanol productivity [11]: 0.06 g butanol/L-h; Butanol yield [11]: 0.10 g butanol/g/glucose; Residual glucose concentration [11]: 0.1 g/L; Butanol concentration [12]: 7.51 g/L; Butanol productivity [12]: 0.08 g butanol/L-h; Butanol yield [12]: 0.13 g butanol/g/glucose; Residual glucose concentration [12]: 0.1 g/L; Butanol concentration [13]: 4.03 g/L; Butanol productivity [13]: 0.04 g butanol/L-h; Butanol yield [13]: 0.07 g butanol/g/glucose; Residual glucose concentration [13]: 0.1 g/L; Butanol concentration [14]: 5.05 g/L; Butanol productivity [14]: 0.05 g butanol/L-h; Butanol yield [14]: 0.09 g butanol/g/glucose; Residual glucose concentration [14]: 0.1 g/L; Butanol concentration [15]: 3.42 g/L; Butanol productivity [15]: 0.04 g butanol/L-h; Butanol yield [15]: 0.06 g butanol/g/glucose; Residual glucose concentration [15]: 0.1 g/L; Butanol (100 nM, transfer 1, after 96 hours of culture): 1.14 g/L; Butanol productivity [16]: 0.01 g butanol/L-h; Butanol yield [16]: 0.02 g butanol/g/glucose; Residual glucose concentration [16]: 48.3 g/L; Butanol (100 nM, transfer 4, after 96 hours of culture): 6.97 g/L; Butanol productivity [17]: 0.07 g butanol/L-h; Butanol yield [17]: 0.12 g butanol/g/glucose; Residual glucose concentration [17]: 0.1 g/L; Butanol (100 nM, transfer 7, after 96 hours of culture): 7.33 g/L; Butanol productivity [18]: 0.08 g butanol/L-h; Butanol yield [18]: 0.12 g butanol/g/glucose; Residual glucose concentration [18]: 0.1 g/L; Butanol (100 nM, transfer 10, after 96 hours of culture): 11.33 g/L; Butanol productivity [19]: 0.12 g butanol/L-h; Butanol yield [19]: 0.19 g butanol/g/glucose; Residual glucose concentration [19]: 0.1 g/L; Butanol (100 nM, transfer 13, after 96 hours of culture): 7.22 g/L; Butanol productivity [20]: 0.08 g butanol/L-h; Butanol yield [20]: 0.12 g butanol/g/glucose; Residual glucose concentration [20]: 0.1 g/L; Butanol (100 nM, transfer 16, after 96 hours of culture): 9.59 g/L; Butanol productivity [21]: 0.10 g butanol/L-h; Butanol yield [21]: 0.16 g butanol/g/glucose; Residual glucose concentration [21]: 0.1 g/L; Butanol (100 nM, transfer 19, after 96 hours of culture): 4.76 g/L; Butanol productivity [22]: 0.05 g butanol/L-h; Butanol yield [22]: 0.08 g butanol/g/glucose; Residual glucose concentration [22]: 0.1 g/L; Butanol (100 nM, transfer 22, after 96 hours of culture): 6.85 g/L; Butanol productivity [23]: 0.07 g butanol/L-h; Butanol yield [23]: 0.11 g butanol/g/glucose; Residual glucose concentration [23]: 0.1 g/L; Butanol (100 nM, transfer 24, after 96 hours of culture): 4.67 g/L; Butanol productivity [24]: 0.05 g butanol/L-h; Butanol yield [24]: 0.08 g butanol/g/glucose; Residual glucose concentration [24]: 0.1 g/L; Transfers over which butanol production was enhanced (BP110517, sequential batch cultures (summary of findings)): transfer 4 through transfer 19; Butanol yield and productivity greater than untreated control (BP110517 first experiment, 25 nM, transfer 4): 23%; Butanol yield and productivity greater than untreated control (BP110517 first experiment, 25 nM, transfer 16): 24%; Decrease of butanol concentration below that of controls [25]: 20%; Reduction in glucose utilization [25]: 80%; Butanol yield and productivity greater than untreated control (BP110517 first experiment, 50 nM, transfer 4): 20%; Butanol productivity [26]: 0.14 g butanol/1-hour; Butanol yield [26]: 0.23 g butanol/g glucose; Butanol yield and productivity greater than untreated control [26]: 46%; Butanol yield and productivity greater than untreated control (BP110517 first experiment, 50 nM, transfer 16): 16%; Effect on butanol production versus untreated control (BP110517 first experiment, 100 nM, except at transfer 10): generally resulted in decreased butanol production, or no difference from the untreated control; Glucose consumption (BP110517 first experiment, all treated and untreated cultures, transfer 4 through transfer 16): ~100%; Increase in butanol over untreated control (SEQ ID NO: 143 first experiment, 25 nM, transfer 4): ~25%; Increase in butanol over untreated control (SEQ ID NO: 143 first experiment, 25 nM, transfer 4, listed as BP110517): 23%; Increase in butanol over untreated control (SEQ ID NO: 143 first experiment, 25 nM, transfer 16): 24%; Increase in butanol over untreated control (SEQ ID NO: 143 first experiment, 50 nM, transfer 4): ~25%; Increase in butanol over untreated control (SEQ ID NO: 143 first experiment, 50 nM, transfer 4, listed as BP110517): 20%; Increase in butanol over untreated control (SEQ ID NO: 143 first experiment, 50 nM, transfer 10): 46%; Increase in butanol over untreated control (SEQ ID NO: 143 first experiment, 50 nM, transfer 16): 16%; Increase in butanol over untreated control (SEQ ID NO: 143 first experiment, 100 nM, transfer 10): 21%; Increase in butanol over untreated control (SEQ ID NO: 143 second experiment, 50 nM, transfer 10): more than 200%; Increase in butanol over untreated control (SEQ ID NO: 143 second experiment, 50 nM, transfer 10, listed as BP110517): 223%; Increase in butanol over untreated control (SEQ ID NO: 143 second experiment, 50 nM, transfer 13): 289%; Increase in butanol over untreated control (SEQ ID NO: 143 second experiment, 50 nM, transfer 16): 170%; Increase in butanol over untreated control (SEQ ID NO: 143 second experiment, 100 nM, transfer 10): more than 200%; Effect on differentiation and butanol production (sequential and continuous cultures): inducer of differentiation and butanol production
